Laboratory results taken from US9089539B2 (Indiana University Research and Technology Corporation, priority 2008, dated 2015).
Where a SMILES comes first, the peptide text is derived from it. Bridges are numbered along the chain shown (N, C = ends). Where no end group is shown, it is not given here. Side-chain parts run from the residue outwards. [ ]: non-standard residue; d: D form. The star is where a group is joined. Desaminohistidyl = O=C(CCc1c[nH]cn1)*; PLA = phenyl lactic acid; Aib = CC(C)(N)C(=O)O

Key:
[1] = test system: blood glucose; assay: Glucose challenge in DIO mice after pegylated peptide injection (Example 8); format: in vivo; details: 15 or 70 nmol/kg, glucose injected sixty minutes after peptide
Protocol: (§1) Nine groups of diabetes-induced obesity (DIO) mice (8 mice per group) having an initial average body weight of 56 g were intraperitoneally injected once and followed for one week with 15 or 70 nmol/kg of Peptides Y, Z, F-Peg, and G-Peg described below or PBS vehicle control.
(§2) Sixty minutes after injection with one of the peptides or with vehicle control (at time point 0), a 25% (w/v) glucose saline solution was injected at a dose of 1.5 g per kg of body weight. Blood glucose concentrations of the mice were measured at the time of injection of the peptide or vehicle control (at time point −60), at the time of glucose injection (at time point 0), and at 15, 30, 60, and 120 minutes after glucose injection.

[2] = Body weight and food intake of DIO mice over one week (Example 8); format: in vivo; details: 15 or 70 nmol/kg; for total food intake: seven days after injection
Protocol: as §1
The body weight of each mouse of each group was measured on 1, 3, 5, and 7 days after injection with the vehicle control or peptide. Total change in body weight was calculated by subtracting the average body weight of a group at the time of injection with vehicle or peptide from the average body weight of the group seven days after injection. Food intake by each group of mice was measured during the course of the week as well. Total food intake was measured seven days after injection with vehicle control or peptide. […] The Ser11 substitution or the des-amino His7 reduces total efficacy.

[3] = test system: blood glucose; assay: Glucose challenge in DIO mice after intraperitoneal peptide injection (Examples 5-7); format: in vivo; details: 2 nmol/kg
Protocol: Six groups of diabetes-induced obesity (DIO) mice (eight mice per group) having an initial average body weight of 49.5 g were intraperitoneally injected with 2 nmol/kg of a PBS vehicle control or one of Peptides A-E described below:
as §2, with “Fifteen” for “Sixty”, “compounds” for “peptides”, “compound” for “peptide”, “control,” for “control (at time point −60),”, “injection,” for “injection (at time point 0),”
Blood glucose levels of the mice were measured as described in Example 5.

[4] = target: T1, GLP-1 receptor (Homo sapiens, UniProt P43220); assay: Luciferase-based reporter gene assay for cAMP detection, GLP-1 receptor; format: cell-based
T1 construct: expressed in transfected cells; host or cells: HEK293
T1 sequence (P43220 24-463, species assumed): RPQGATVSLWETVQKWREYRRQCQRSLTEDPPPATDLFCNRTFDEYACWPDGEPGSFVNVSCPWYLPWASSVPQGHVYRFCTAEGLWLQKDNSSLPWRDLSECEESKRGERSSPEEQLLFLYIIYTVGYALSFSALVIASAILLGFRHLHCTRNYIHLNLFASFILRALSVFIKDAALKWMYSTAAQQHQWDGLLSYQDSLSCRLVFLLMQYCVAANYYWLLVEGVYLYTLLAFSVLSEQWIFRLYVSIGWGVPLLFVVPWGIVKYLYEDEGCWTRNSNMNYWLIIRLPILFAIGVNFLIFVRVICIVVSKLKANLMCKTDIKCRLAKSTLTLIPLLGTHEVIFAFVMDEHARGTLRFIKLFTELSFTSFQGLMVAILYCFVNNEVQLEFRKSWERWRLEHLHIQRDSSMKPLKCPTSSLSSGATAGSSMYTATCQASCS

[5] = Cleavage of dipeptide-extended prodrugs on incubation in PBS (HPLC/MS); format: physicochemical
Protocol: Preliminary analyses were performed with these crude peptides to get an approximation of their relative conversion rates in Phosphate Buffered Saline (PBS) buffer (pH, 7.2) using high performance liquid chromatography (HPLC) and MALDI analysis. The crude peptide samples were dissolved in the PBS buffer at a concentration of 1 mg/ml. 1 ml of the resulting solution was stored in a 1.5 ml HPLC vial which was then sealed and incubated at 37° C. Aliquots of 100 μl were drawn out at various time intervals, cooled to room temperature and analyzed by HPLC.
HPLC analyses were performed on a 150 mm×4.6 mm C18 Vydac column. The flow rate was 1 ml/min. […] A linear gradient was employed (40% to 70% B in 15 minutes).
Each N-terminally extended peptide was incubated in PBS buffer at 37° C. for approximately a week. Alternatively, each peptide was heated for 120 min at 100° C. to accelerate the amide bond cleavage. Cleavage of the prodrugs was analyzed by reverse phase HPLC and MS.
To explore the possible formation of 2,5-diketopiperazine (DKP) or 2,5-diketomorpholine (DMP) and the simultaneous generation of HO-F^7,GLP(8-36)-CEX, the prodrug was incubated in PBS buffer at 37° C. for approximately a week. The peptide was also heated at 100° C. to determine the susceptibility to cleavage (Table 4).

Molecule	blood glucose concentrations versus vehicle control [1]	total food intake [2]	blood glucose of prodrug form versus corresponding non-prodrug form [3]	other results
Peptide F-Peg: Peptide F sequence with Cys at 30 linked to a 40 kDa PEG; SEQ ID NO: 655 ([Desaminohistidyl]SEGTFTSDVSSYLEEQAAKEFIC(PEG 40 kDa)WLVKGRPSSGAPPPS-NH2)	less as compared to the blood glucose levels of mice injected with vehicle control	decreased		total efficacy over a week study [2]: comparable
Peptide Y: GLP-1-based peptide with Cys at 30 linked to a 40 kDa PEG; SEQ ID NO: 653 (H[Aib]EGTFTSDVSSYLEEQAAKEFIC(PEG 40 kDa)WLVKGRPSSGAPPPS-NH2)	less as compared to the blood glucose levels of mice injected with vehicle control	decreased		potency in decreasing appetite and decreasing body weight ([2]; one week): most potent of the four peptides in decreasing appetite and decreasing body weight
Peptide G: prodrug of Peptide F, d-Phe-dVal ester on Ser at position 2 of Peptide F; SEQ ID NO: 651 ([Desaminohistidyl]S([dV-dF])EGTFTSDVSSYLEEQAAKEFIAWLVKGRPSSGAPPPS-NH2; SMILES CC[C@H](C)[C@H](NC(=O)[C@H](Cc1ccccc1)NC(=O)[C@H](CCC(=O)O)NC(=O)[C@H](CCCCN)NC(=O)[C@H](C)NC(=O)[C@H](C)NC(=O)[C@H](CCC(N)=O)NC(=O)[C@H](CCC(=O)O)NC(=O)[C@H](CCC(=O)O)NC(=O)[C@H](CC(C)C)NC(=O)[C@H](Cc1ccc(O)cc1)NC(=O)[C@H](CO)NC(=O)[C@H](CO)NC(=O)[C@@H](NC(=O)[C@H](CC(=O)O)NC(=O)[C@H](CO)NC(=O)[C@@H](NC(=O)[C@H](Cc1ccccc1)NC(=O)[C@@H](NC(=O)CNC(=O)[C@H](CCC(=O)O)NC(=O)[C@H](COC(=O)[C@H](NC(=O)[C@H](N)Cc1ccccc1)C(C)C)NC(=O)CCc1c[nH]cn1)[C@@H](C)O)[C@@H](C)O)C(C)C)C(=O)N[C@@H](C)C(=O)N[C@@H](Cc1c[nH]c2ccccc12)C(=O)N[C@@H](CC(C)C)C(=O)N[C@H](C(=O)N[C@@H](CCCCN)C(=O)NCC(=O)N[C@@H](CCCNC(=N)N)C(=O)N1CCC[C@H]1C(=O)N[C@@H](CO)C(=O)N[C@@H](CO)C(=O)NCC(=O)N[C@@H](C)C(=O)N1CCC[C@H]1C(=O)N1CCC[C@H]1C(=O)N1CCC[C@H]1C(=O)N[C@@H](CO)C(N)=O)C(C)C)			higher than the blood glucose levels of mice injected with its corresponding non-prodrug form	
H^7AEGTFTSDVSSYLEGQAAKEFIAWLVKGXPSSGAPPPS-amide [GLP(7-36)-CEX amide]				potency relative to native GLP-1 [4]: approximately ten times more potent in vitro than the native GLP-1 sequence
Peptide E: prodrug of Peptide D, d-Phe-d-Val ester on Ser at position 11; SEQ ID NO: 649 (H[Aib]EGS([dV-dF])FTSDVSSYLEEQAAKEFIAWLVKGRPSSGAPPPS-NH2; N-terminus assumed; SMILES CC[C@H](C)[C@H](NC(=O)[C@H](Cc1ccccc1)NC(=O)[C@H](CCC(=O)O)NC(=O)[C@H](CCCCN)NC(=O)[C@H](C)NC(=O)[C@H](C)NC(=O)[C@H](CCC(N)=O)NC(=O)[C@H](CCC(=O)O)NC(=O)[C@H](CCC(=O)O)NC(=O)[C@H](CC(C)C)NC(=O)[C@H](Cc1ccc(O)cc1)NC(=O)[C@H](CO)NC(=O)[C@H](CO)NC(=O)[C@@H](NC(=O)[C@H](CC(=O)O)NC(=O)[C@H](CO)NC(=O)[C@@H](NC(=O)[C@H](Cc1ccccc1)NC(=O)[C@H](COC(=O)[C@H](NC(=O)[C@H](N)Cc1ccccc1)C(C)C)NC(=O)CNC(=O)[C@H](CCC(=O)O)NC(=O)C(C)(C)NC(=O)[C@@H](N)Cc1c[nH]cn1)[C@@H](C)O)C(C)C)C(=O)N[C@@H](C)C(=O)N[C@@H](Cc1c[nH]c2ccccc12)C(=O)N[C@@H](CC(C)C)C(=O)N[C@H](C(=O)N[C@@H](CCCCN)C(=O)NCC(=O)N[C@@H](CCCNC(=N)N)C(=O)N1CCC[C@H]1C(=O)N[C@@H](CO)C(=O)N[C@@H](CO)C(=O)NCC(=O)N[C@@H](C)C(=O)N1CCC[C@H]1C(=O)N1CCC[C@H]1C(=O)N1CCC[C@H]1C(=O)N[C@@H](CO)C(N)=O)C(C)C)			higher than the blood glucose levels of mice injected with the corresponding non-prodrug forms of the peptides	
Peptide Z: pegylated prodrug, d-Phe-d-Val ester on Ser at position 11; SEQ ID NO: 654 (H[Aib]EGS([dV-dF])FTSDVSSYLEEQAAKEFIC(PEG 40 kDa)WLVKGRPSSGAPPPS-NH2)	less as compared to the blood glucose levels of mice injected with vehicle control	decreased		
CC[C@H](C)[C@H](NC(=O)[C@H](Cc1ccccc1)NC(=O)[C@H](CCC(=O)O)NC(=O)[C@H](CCCCN)NC(=O)[C@H](C)NC(=O)[C@H](C)NC(=O)[C@H](CCC(N)=O)NC(=O)CNC(=O)[C@H](CCC(=O)O)NC(=O)[C@H](CC(C)C)NC(=O)[C@H](Cc1ccc(O)cc1)NC(=O)[C@H](CO)NC(=O)[C@H](CO)NC(=O)[C@@H](NC(=O)[C@H](CC(=O)O)NC(=O)[C@H](CO)NC(=O)[C@@H](NC(=O)[C@H](Cc1ccccc1)NC(=O)[C@H](COC(=O)CNC(=O)CN)NC(=O)CNC(=O)[C@H](CCC(N)=O)NC(=O)[C@H](C)NC(=O)[C@@H](N)Cc1ccccc1)[C@@H](C)O)C(C)C)C(=O)N[C@@H](C)C(=O)N[C@@H](Cc1c[nH]c2ccccc12)C(=O)N[C@@H](CC(C)C)C(=O)N[C@H](C(=O)N[C@@H](CCCCN)C(=O)NCC(=O)NCC(=O)N1CCC[C@H]1C(=O)N[C@@H](CO)C(=O)N[C@@H](CO)C(=O)NCC(=O)N[C@@H](C)C(=O)N1CCC[C@H]1C(=O)N1CCC[C@H]1C(=O)N1CCC[C@H]1C(=O)N[C@@H](CO)C(N)=O)C(C)C (H-FAQGS([Gly-Gly])FTSDVSSYLEGQAAKEFIAWLVKGGPSSGAPPPS-NH2; N-terminus and C-terminus assumed)				half-life ([5]; buffer, PBS pH 7.2, 37° C.): 2.7 h; prodrug converted to the active entity ([5]; in 5 hours, worked out from the half life ([…])): approximately 70%
Peptide A: prodrug of Peptide B, d-Phe-dPhe attached via the O-terminus; SEQ ID NO: 645 ({dF-dF-PLA}-[Aib]EGTFTSDVSSYLEEQAAKEFIAWLVKGRPSSGAPPPS-NH2; also: dF-PLA joined by ester bond)			higher than the blood glucose levels of mice injected with the corresponding non-prodrug forms of the peptides	
Peptide C: prodrug of Peptide B, d-Phe-d-Val attached via the O-terminus; SEQ ID NO: 647 ({dF-dV-PLA}-[Aib]EGTFTSDVSSYLEEQAAKEFIAWLVKGRPSSGAPPPS-NH2; also: dV-PLA joined by ester bond)			higher than the blood glucose levels of mice injected with the corresponding non-prodrug forms of the peptides	
F^7,GLP(8-37): aa 7-37 of GLP-1 with the His at position 7 replaced with Phe (FAEGTFTSDVSSYLEGQAAKEFIAWLVKGRG; Glucagon-like peptide 1(7-37); UniProt P01275 98-128, looked up, variant H7F)				potency of native GLP-1 ([4]; relative to native GLP): 10%
HAEGTFTSDVSSYLEGQAAKEFIAWLVKGRGKRNRNNIA (listed as Homo sapiens) [GLP-oxyntomodulin]				potency relative to native GLP-1 [4]: at least as potent as the native GLP-1 peptide
2 (FTSEYSKYLDERRAQDFVQWLMNTGPSSGAPPPS; lactam 7-11) [Peptide 2]				t1/2 ([5]; buffer): HO-Phe-dVal (t1/2 = 50.5 hrs)
Peptide G-Peg: pegylated prodrug, d-Phe-d-Val ester on Ser at position 8; SEQ ID NO: 656 ([Desaminohistidyl]S([dV-dF])EGTFTSDVSSYLEEQAAKEFIC(PEG 40 kDa)WLVKGRPSSGAPPPS-NH2)	less as compared to the blood glucose levels of mice injected with vehicle control	decreased		total efficacy over a week study [2]: comparable
